Measured values taken from a melting point compilation (Tetko et al.; mined from patent text by program, amines drawn as free bases though some values may be those of a salt).

For `CCCCOc1cccc2oc(-c3ccccc3)cc(=O)c12`, the melting point was 96 to 97 °C.
In the case of `CC(=O)Nc1cc(C(F)(F)F)ccc1S(=O)(=O)CC#N`, the melting point was 146 to 147 °C.
`CCn1c(=O)c2c(-c3nc(C)no3)ncn2c2cccnc21` showed a melting point of 251 to 252 °C.
`CCc1nnc2c(O)nc3cc(OC)ccc3n12` gave a melting point of over 250 °C.
`CCCCc1nccn1Cc1c(F)cccc1Cl` showed a melting point of 106 to 108 °C.
Compound `CC(=O)c1cc(NS(C)(=O)=O)ccc1O` has a melting point of 121 to 122 °C.
In the case of `O=C(NC1=NCCC1)Nc1ccc(Cl)cc1`, the melting point was 147 to 150 °C.
`CNc1cccc(NS(=O)(=O)c2ccc(N)cc2)c1` showed a melting point of 134 to 135 °C.
`CCCCC(C=O)(CC)CS(=O)(=O)c1ccccc1C(=O)c1ccccc1` (configuration not stated) showed a melting point of 135 to 136 °C.
`CC(=O)N(C)c1c(I)c(NC(=O)CCCCCCCC(=O)O)c(I)c(C(=O)O)c1I` gave a melting point of 205 to 208 °C.
With `CC(=O)N(Cc1ccccc1)CC(CCN1CCC(O)(c2ccccc2)CC1)c1ccc(Cl)c(Cl)c1` (configuration not stated) the melting point was 57 to 62 °C.
Compound `CC(=O)NNc1ccnc2c(NC(=O)c3c(Cl)cccc3Cl)cc(C(F)(F)F)cc12` has a melting point of 174 to 178 °C.
`CC(C)(C)OC(=O)c1ccc(Cl)cn1` showed a melting point of 86.3 to 88.3 °C.
For `COCc1c(C(=O)c2ccccc2)ncc2[nH]c3ccc(OCc4ccccc4)cc3c12`, the melting point was 165 °C.
For `CCOC(=O)c1nn(-c2ccc([N+](=O)[O-])cc2)c2c1CCCC2`, the melting point was 173 °C.
`CC(=O)OCCN1CCN(C)c2cc(Nc3ncc(Cl)c(N[C@@H]4CCCC[C@H]4NS(C)(=O)=O)n3)ccc2C1` showed a melting point of 110 to 142 °C.
For `CCN(CC)CCC(=O)NC1(c2ccccc2Cl)C(=O)N(S(=O)(=O)c2ccc3c(c2)CCN3C(=O)N(CC)CC)c2ccc(Cl)cc21` (configuration not stated), the melting point was 130 to 133 °C.
Work on `O=C(NS(=O)(=O)c1ccc(Cl)cc1)N1CC(c2ccccc2)C(c2ccc(Cl)cc2)=N1` (configuration not stated) yielded a melting point of 211 to 214 °C.
Compound `Cc1[nH]c2ccc(S(=O)(=O)c3ccc(C(F)(F)F)cc3)cc2c1CCNC(=O)OC(C)(C)C` has a melting point of 162 to 164 °C.
With `CC(C)(C)OC(=O)n1ccc2c3[nH]c(CO)nc3ccc21` the melting point was 152 °C.
For `Oc1cccnc1C=NNc1ccc(F)cc1`, the melting point was 223 to 225 °C.
`COc1ccccc1OCC(O)CCCl` (configuration not stated) showed a melting point of 48 to 50 °C.
`COc1ccc2cc(-c3cccnc3)ccc2n1` showed a melting point of 89 to 91 °C.
Compound `CN(C#N)C(=O)CCCCCCCCC(=O)N(C)C#N` has a melting point of 83.4 to 84 °C.
For `Cc1cccc(-c2nc(C)cc(NC3CCCCC3)n2)n1`, the melting point was 59.6 to 65 °C.
Work on `Cc1cc(C)n(C(=O)CNS(=O)(=O)c2ccc(CC(C)C)cc2)n1` yielded a melting point of 124 °C.
For `COc1ccc([C@H](Cc2ccncc2)c2ccccc2)cc1O`, the melting point was 158 to 159 °C.
With `CN(C(=O)N1Cc2nc(Cc3ccccc3)n(Cc3ccccc3)c2C[C@H]1CO)c1ccccc1` the melting point was 80 to 87 °C.
For `COc1cc(S(C)=O)ccc1-c1ccc(C#N)c(=O)[nH]1` (configuration not stated), the melting point was 239 to 241 °C.
In the case of `C[C@@H](n1cnc2cc(NCc3ccccc3)ccc2c1=O)[C@](O)(Cn1cncn1)c1ccc(F)cc1F`, the melting point was 100 to 107 °C.
For `CC(=O)NCC1CN(c2ccc(N3CCN(c4ncc([N+](=O)[O-])s4)CC3)c(F)c2)C(=O)O1` (configuration not stated), the melting point was 202 to 203 °C.
`CN(c1cccc2cc(C3=NCC(CCNc4nnc[nH]4)S3)[nH]c12)S(=O)(=O)c1cccs1` (configuration not stated) showed a melting point of 195 °C.
`COc1cc(OC)nc(Oc2ccc(N(C)C)nc2C(=O)O)n1` gave a melting point of 195 to 198 °C.
`COc1cccc(C(F)(F)F)c1O` showed a melting point of 51 to 53 °C.
With `O=C(O)c1cccc(Oc2ccc([N+](=O)[O-])cc2Cl)c1` the melting point was 172 to 173 °C.
In the case of `Cc1nnc2n1-c1sc(C(C)OC(=O)C(C)(C)C)cc1C(c1ccccc1Cl)=NC2` (configuration not stated), the melting point was 148 to 151 °C.
Work on `Clc1ccc(CN2CCCCC2)cn1` yielded a melting point of 48 °C.
Work on `CC(=O)S[C@@H]1C[C@@H](C(=O)N(CCc2ccccc2)CC(=O)O)N(S(=O)(=O)c2ccc3ccccc3c2)C1` yielded a melting point of 190 to 193 °C.
`O=C(Nc1ccc(OCCCN2CCCC2=O)c2ccccc12)c1cc(F)cc(N2CCCCC2)c1` showed a melting point of 88 to 89 °C.
Work on `N#CCCn1cnc2ccccc21` yielded a melting point of 108 to 110 °C.
In the case of `CON(C)C(=O)c1cc(C)c(C(c2cc(F)ccc2F)S(=O)(=O)c2ccc(F)cc2)cn1` (configuration not stated), the melting point was 156 to 158 °C.
In the case of `CC(C(=O)N1c2ccccc2N(C)C(=O)c2cnc(-c3ccccc3)nc21)N1CCNCC1` (configuration not stated), the melting point was 197 °C.
Compound `CC(C)(C)C(=O)O[C@H]1[C@H](N2CCCC2)c2cc(C#N)ccc2OC1(C)C` (relative stereo) has a melting point of 109 to 110 °C.
For `CCCCCCCCCCCCCCCCCC(O)c1ccc(C(=O)O)c(Cl)c1` (configuration not stated), the melting point was 93 to 96 °C.
`COC(=O)C1=Cc2cccc(C3CCN(S(=O)(=O)c4ccc(C)cc4)CC3)c2CCC1` gave a melting point of 169 to 173 °C.
For `N=C(Nc1ccccc1-c1ccccc1)N1CCOCC1`, the melting point was 153 to 154 °C.
Work on `C[C@H](NC(=O)OC(C)(C)C)[C@@H]1CCN(c2nc3c(cc2F)c(=O)[nH]c(=O)n3C2CC2)C1` yielded a melting point of 249 to 251 °C.
`Cc1ccc(S(=O)(=O)NCCO)c(C)c1` showed a melting point of 70 to 72 °C.
Work on `CCCCN1C(=O)CC(=O)NC1=O` yielded a melting point of 107 to 108 °C.
In the case of `COc1nc(NC(=O)NS(=O)(=O)c2sccc2C(F)=C(F)C(F)(F)F)nc(OC)n1`, the melting point was 149 to 153 °C.
With `O=C1NCc2c1cc1ccc3c(c1c2-c1ccc(F)cc1)OCO3` the melting point was 294 to 297 °C.
In the case of `COC(=O)c1ccc(C=O)c2ccccc12`, the melting point was 95 to 96 °C.
For `CCOC(=O)NC(=O)c1nc(Cl)c(Cl)[nH]1`, the melting point was 208 °C.
In the case of `COc1ccc(C(O)Cc2c(Cl)cncc2Cl)cc1OC1CCCC1` (configuration not stated), the melting point was 124 to 125 °C.
Compound `O=C(OCc1cncs1)Oc1ccc([N+](=O)[O-])cc1` has a melting point of 62 to 64 °C.
With `CCOC(=O)CCc1cc([N+](=O)[O-])ccc1O` the melting point was 199 to 200 °C.
Work on `CC(C)C[C@H](OC(=O)NC1CCCCC1)C(=O)OCc1ccccc1` yielded a melting point of 89 to 90 °C.
Work on `CCCCC1(Cc2c(F)cccc2Cl)NC=C(C=O)N1` (configuration not stated) yielded a melting point of 88 to 90 °C.
In the case of `O=C1NN=C(c2ccc(NC(=O)C3(Cl)CC3)cc2)C2CC12` (configuration not stated), the melting point was 221 to 222 °C.
Compound `C=C(C)C(=O)NCC(=O)O` has a melting point of 104 °C.
For `COC(=O)Nc1nc(-c2ccccc2)c(-c2nc3ccccc3c(=O)n2-c2ccccc2C)s1`, the melting point was over 275 °C.
`CC(C)(C)NCC(O)c1ccc(N)c(F)c1F` (configuration not stated) gave a melting point of 133 to 135 °C.
`Cc1c(Cl)cccc1NC(=O)NCc1ccc2c(c1)CN(C1CCC(=O)NC1=O)C2=O` (configuration not stated) showed a melting point of 252 to 254 °C.
With `Nc1nnc(-c2cccc(Oc3cccc(COc4ccc(Cl)c(Cl)c4)c3)c2)s1` the melting point was 128 to 130 °C.
Work on `CCC(=O)C1=C(O)OC(C)(C)OC1=O` yielded a melting point of 55 to 57 °C.
In the case of `COCCON=C(C1=C(O)C(=O)N(c2ccc(C)nn2)C1c1ccc(OC(F)(F)F)cc1)c1ccc(C(C)C)cc1` (configuration not stated), the melting point was 115 to 118 °C.
For `CS(=O)(=O)c1cccc(NC(=O)c2cnn3c(C(F)F)cc(-c4ccc(C(F)(F)F)c(OCC(F)(F)F)c4)nc23)c1`, the melting point was 207 °C.
For `COC(=O)CCC#Cc1cc(F)cc([N+](=O)[O-])c1`, the melting point was 111 to 112 °C.
Work on `COC(=O)CCCCCCNC(=O)C(CSC(C)=O)Cc1ccccc1` (configuration not stated) yielded a melting point of 84 to 85 °C.
With `CCC(CC)NC(=O)c1ccc(-c2scc(-c3ccccc3Cl)c2CC(=O)O)cc1` the melting point was 101 to 103 °C.
With `CC(C)(C)NCCCCOc1ccccc1C(=O)Nc1cccc2[nH]ccc12` the melting point was 147 °C.
Compound `CC1(O)CC(=O)OC(CCc2ccc(OCc3ccccc3)cc2)C1Br` (configuration not stated) has a melting point of 155 to 160 °C.
